This passage reports IC50 results from ChEMBL document CHEMBL3714749, “Quinoxaline derivatives as gpr6 modulators” (2014).

Sequence of G-protein coupled receptor 6 (P46095 whole entry): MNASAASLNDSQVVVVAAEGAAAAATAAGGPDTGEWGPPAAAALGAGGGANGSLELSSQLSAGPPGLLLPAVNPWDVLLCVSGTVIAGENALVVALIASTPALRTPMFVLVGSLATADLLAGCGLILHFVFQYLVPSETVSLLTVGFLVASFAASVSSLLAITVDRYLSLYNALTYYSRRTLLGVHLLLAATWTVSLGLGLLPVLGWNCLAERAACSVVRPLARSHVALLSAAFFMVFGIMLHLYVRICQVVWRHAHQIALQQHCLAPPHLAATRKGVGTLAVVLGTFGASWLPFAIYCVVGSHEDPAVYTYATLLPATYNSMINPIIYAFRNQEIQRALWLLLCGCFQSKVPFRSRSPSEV

The assay concerns the target G-protein coupled receptor 6 (Homo sapiens, UniProt P46095). Briefly: Activity at GPR6 (unknown origin) expressed in CHOK1 cells assessed as inhibition of constitutive cAMP activity incubated for 45 mins by HTRF based cAMP detection assay. It counts as functional, cell-based, CHO-K1. (Time-resolved FRET reads energy transfer from a long-lived donor to a nearby acceptor.)
As a reminder, the IC50 is the point on the concentration scale where inhibition reaches its midpoint. Take `C[C@@H](CO)Nc1nc2ccccc2nc1N1CCN(Cc2cc(Cl)ccc2Cl)CC1`: the IC50 was 1570 nM.

On to `O=C(c1ccc(F)c(F)c1)C1CCN(c2nc3cnccc3nc2NC2CC2)CC1`, for which the IC50 worked out at 8390 nM.

As to `O=C(c1ccccc1Cl)C1CCN(c2nc3cnccc3nc2NC2CC2)CC1`, the IC50 is 67 nM. As to `N#Cc1ccc2nc(NCCF)c(N3CCN(C(=O)c4ccc(Cl)cc4)CC3)nc2c1`, the IC50 was determined as 960 nM. In the case of `Clc1ccc(Cl)c(CN2CCN(c3nc4cnccc4nc3NC3CC3)CC2)c1`, the IC50 worked out at 32 nM. Next, `Fc1cc(F)c(OC2CCN(c3nc4cnccc4nc3NC3CC3)CC2)c(F)c1`: 170 nM; `Fc1ccc(Cl)cc1CN1CCN(c2nc3cnccc3nc2NC2CC2)CC1`: 29 nM; `N#Cc1cccc(C(=O)C2CCN(c3nc4cnccc4nc3NC3CC3)CC2)c1`: 7210 nM. As for `O=C(c1nccc2nc(NC3CC3)c(N3CCC([C@H](F)c4ccc(F)cc4F)CC3)nc12)N1CCOCC1`, the IC50 was found to be 6 nM. Regarding `Cc1nnc(Nc2nc3ccccc3nc2N2CCN(Cc3cc(Cl)ccc3Cl)CC2)nc1C`, the IC50 worked out at 17800 nM. The value for `COc1ccc(CN2CCN(c3nc4cnc(N5CCOCC5)cc4nc3NC3CC3)CC2)c(F)c1` was 92 nM; that for `N#Cc1ccc2nc(NCCC(F)(F)F)c(N3CCC(Oc4ccc(F)cc4F)CC3)nc2c1` was 160 nM. The value for `Fc1ccc(CC2CCN(c3nc4cc(F)ccc4nc3NC3CC3)CC2)c(F)c1` was 72 nM; that for `Clc1ccccc1OC1CCN(c2nc3cnccc3nc2NC2CC2)CC1` was 1510 nM.

In the case of `CC(C)Nc1nc2ccc(C#N)cc2nc1N1CCC([C@@H](F)c2ccc(F)cc2F)CC1`, the IC50 amounted to 49 nM. Next, `COc1ccc(C(=O)C2CCN(c3nc4cnncc4nc3NC(C)C)CC2)c(F)c1`: 54 nM; `Fc1cc(Cl)ccc1OC1CCN(c2nc3cnncc3nc2NC2CC2)CC1`: 30 nM; `Clc1ccc(Cl)c(CN2CCN(c3nc4ccccc4nc3Nc3ccccn3)CC2)c1`: 3290 nM. The value for `Cc1nccc2nc(NC3CC3)c(N3CCC(Oc4ccc(F)cc4F)CC3)nc12` was 18 nM; that for `Oc1ccc(OC2CCN(c3nc4ccncc4nc3NC3CC3)CC2)c(F)c1` was 54 nM. For the compound `O=C(c1cc(F)ccc1Cl)C1CCN(c2nc3cnccc3nc2NC2CC2)CC1`, the IC50 was 62 nM. The value for `CC(C)OCCNc1nc2ccccc2nc1N1CCN(Cc2cc(Cl)ccc2Cl)CC1` was 3330 nM. Next, `COc1ccc(CC2CCN(c3nc4cnc(C#N)cc4nc3NC(C)C)CC2)c(F)c1`: 26 nM; `Cc1cc2nc(NC3CC3)c(N3CCC([C@H](F)c4cc(F)ccc4F)CC3)nc2cn1`: 11 nM; `N#Cc1ccc2nc(Nc3cccnc3)c(N3CCC(Cc4ccc(F)cc4F)CC3)nc2c1`: 390 nM.

In the case of `O=S(=O)(c1ccccc1)N1CCN(c2nc3cc(F)ccc3nc2NC2CC2)CC1`, the IC50 was found to be 9440 nM. The value for `O=C(c1c(F)cc(Cl)cc1F)C1CCN(c2nc3cnccc3nc2NC2CC2)CC1` was 200 nM; that for `Clc1ccc(OC2CCN(c3nc4cnccc4nc3NC3CC3)CC2)cc1` was 310 nM; that for `COc1ccc(OC2CCN(c3nc4cnccc4nc3NC3CC3)CC2)cc1` was 190 nM. Regarding `Clc1ccc(Cl)c(CN2CCN(c3nc4ccccc4nc3NC3CCOCC3)CC2)c1`, the IC50 was found to be 4070 nM. The value for `O=C(c1cccc(Cl)c1)C1CCN(c2nc3cnccc3nc2NC2CC2)CC1` was 11000 nM; that for `Clc1ccc(Cl)c(CN2CCN(c3nc4ccccc4nc3Nc3cnccn3)CC2)c1` was 2340 nM. The value for `N#Cc1ccc2nc(Nc3ccon3)c(N3CCN(C(=O)c4ccc(Cl)cc4)CC3)nc2c1` was 15400 nM; that for `Fc1ccc(CN2CCN(c3nc4ccncc4nc3NCC(F)F)CC2)c(F)c1` was 230 nM; that for `Fc1ccc([C@H](F)C2CCN(c3nc4cnncc4nc3NC3CC3)CC2)c(F)c1` was 22 nM. The value for `Cc1cc2nc(NC3CC3)c(N3CCC(Cc4ccc(F)cc4F)CC3)nc2cn1` was 20 nM.

Consider `Fc1cc(F)c(CN2CCN(c3nc4cnccc4nc3NC3CC3)CC2)cc1F`, for which the IC50 was 50 nM. The value for `Cc1nccc2nc(NC3CC3)c(N3CCC(Cc4ccc(F)cc4F)CC3)nc12` was 2 nM. On to `Cc1ccc(C)c(CN2CCN(c3nc4cnccc4nc3NC3CC3)CC2)c1`, for which the IC50 worked out at 380 nM. As for `O=C(c1ccsc1)C1CCN(c2nc3cnccc3nc2NC2CC2)CC1`, the IC50 stood at 2290 nM.

In the case of `Cc1cccc(CN2CCN(c3nc4ccccc4nc3NC3CC3)CC2)c1C`, the IC50 amounted to 3640 nM.

Turning to `Cc1nccc2nc(NC3CC3)c(N3CCC(C(F)c4ccc(F)cc4F)CC3)nc12` (stereo not given), the IC50 came to 9 nM.

As for `N#Cc1ccc2nc(N3CCN(Cc4cc(Cl)ccc4Cl)CC3)c(Nc3cccnc3)nc2c1`, the IC50 turned out to be 440 nM. Next, `O=C(c1cc2nc(NC3CC3)c(N3CCC([C@@H](F)c4ccc(F)cc4F)CC3)nc2cn1)N1CCC1F` (stereo not given in full): 26 nM; `N#Cc1ccc2nc(NC3CC(=O)C3)c(N3CCN(Cc4cc(Cl)ccc4Cl)CC3)nc2c1`: 97 nM; `N#Cc1ccc2nc(NC3CC3)c(N3CCN(S(=O)(=O)c4ccc(Cl)cc4)CC3)nc2c1`: 570 nM. The value for `Cc1cc2nc(NC3CC3)c(N3CCC([C@@H](F)c4ccc(F)cc4F)CC3)nc2cn1` was 6 nM; that for `N#Cc1ccc2nc(N3CCN(C(=O)c4ccc(Cl)cc4)CC3)c(NC3CC3)nc2c1` was 340 nM. With `Fc1ccc(F)c(OC2CCN(c3nc4cnccc4nc3NC3CC3)CC2)c1`, the IC50 was 1100 nM. Turning to `COc1ccc(OC2CCN(c3nc4cnncc4nc3NC3CC3)CC2)c(F)c1`, the IC50 came to 20 nM.

On to `COc1ccc2nc(N3CCN(Cc4cc(Cl)ccc4Cl)CC3)c(NC3CC3)nc2c1`, for which the IC50 is 3360 nM.

On to `Fc1cnc(Cl)c(CN2CCN(c3nc4ccccc4nc3NC3CC3)CC2)c1`, for which the IC50 is 20400 nM. On to `Fc1ccc(CN2CCN(c3nc4cnncc4nc3NC3CC3)CC2)c(F)c1`, for which the IC50 worked out at 260 nM.

Turning to `Cc1cc(C(=O)N2CCN(c3nc4ccccc4nc3NC3CC3)CC2)ccc1Cl`, the IC50 was determined as 720 nM. Next, `CSc1ccc(F)c(C(=O)C2CCN(c3nc4cnccc4nc3NC3CC3)CC2)c1`: 478 nM; `O=C(c1nccc2nc(NC3CC3)c(N3CCC([C@@H](F)c4ccc(F)cc4F)CC3)nc12)N1CCOCC1`: 7 nM; `Clc1ccc(Cl)c(CN2CCN(c3nc4cccc(Br)c4nc3NC3CC3)CC2)c1`: 1640 nM. The value for `Fc1ccc(CC2CCN(c3nc4ccncc4nc3NCC(F)F)CC2)c(F)c1` was 78 nM; that for `COc1cccc(OC2CCN(c3nc4cnncc4nc3NC(C)C)CC2)c1` was 1000 nM; that for `N#Cc1cc2nc(NC3CC3)c(N3CCC([C@@H](F)c4ccc(F)cc4F)CC3)nc2cn1` was 17 nM. Next, `Fc1ccc(CC2CCN(c3nc4cc(F)c(F)cc4nc3NC3CC3)CC2)c(F)c1`: 140 nM. Consider `Fc1ccc([C@@H](F)C2CCN(c3nc4cnccc4nc3NC3CC3)CC2)c(F)c1`, for which the IC50 was 24 nM. For the compound `Cc1cc(CN2CCN(c3nc4ccccc4nc3NC3CC3)CC2)no1`, the IC50 is 105000 nM.

For the compound `N#Cc1cc2nc(NC3CC3)c(N3CCC(Cc4ccc(F)cc4F)CC3)nc2cn1`, the IC50 amounted to 15 nM. The value for `O=C(c1cc(Cl)ccc1F)C1CCN(c2nc3cnccc3nc2NC2CC2)CC1` was 35 nM. The value for `Clc1ccc(Cl)c(CN2CCN(c3nc4ccncc4nc3NC3CC3)CC2)c1` was 56 nM; that for `CC(C)(C)Nc1nc2cc(C#N)ncc2nc1N1CCC(Oc2ccc(F)cc2F)CC1` was 538 nM. Next, `CC(C)Nc1nc2cnccc2nc1N1CCC(Oc2ccc(F)cc2F)CC1`: 20 nM; `O=C(c1c(F)cccc1F)C1CCN(c2nc3cnccc3nc2NC2CC2)CC1`: 2180 nM. Consider `CC(C)Nc1nc2cnncc2nc1N1CCC([C@@H](F)c2ccc(F)cc2F)CC1`, for which the IC50 worked out at 14 nM. The value for `Fc1ccc(F)c(C(F)C2CCN(c3nc4cnccc4nc3NC3CC3)CC2)c1` (stereo not given) was 20 nM; that for `O=S(=O)(c1ccccc1)N1CCN(c2nc3ccccc3nc2Nc2cccnc2)CC1` was 4630 nM; that for `Fc1ccc(OC2CCN(c3nc4cnncc4nc3NC3CC3)CC2)c(F)c1` was 18 nM.

With `Fc1ccc(C(F)C2CCN(c3nc4cnc(Br)cc4nc3NC3CC3)CC2)c(F)c1` (stereo not given), the IC50 came out at 29 nM. Next, `COCCNc1nc2ccc(C#N)cc2nc1N1CCC(Cc2ccc(F)cc2F)CC1`: 250 nM.

Regarding `Fc1ccc(OC2CCN(c3nc4cc(Br)ccc4nc3NC3CC3)CC2)c(F)c1`, the IC50 came to 1430 nM. Next, `N#Cc1ccc2nc(NC3CC3)c(N3CCN(S(=O)(=O)c4cccc(Cl)c4)CC3)nc2c1`: 5620 nM; `N#Cc1ccc2nc(NCCC(F)(F)F)c(N3CCN(Cc4ccc(F)cc4F)CC3)nc2c1`: 390 nM. Next, `O=C(c1c(F)cccc1Cl)C1CCN(c2nc3cnccc3nc2NC2CC2)CC1`: 4900 nM; `N#Cc1ccc2nc(NCC(F)F)c(N3CCC(Cc4ccc(F)cc4F)CC3)nc2c1`: 71 nM; `O=C(c1csc(Cl)c1)C1CCN(c2nc3cnccc3nc2NC2CC2)CC1`: 4810 nM.

On to `O=C(c1ccccc1Br)C1CCN(c2nc3cnccc3nc2NC2CC2)CC1`, for which the IC50 was determined as 78 nM.

`N#Cc1ccc2nc(NC3CC3)c(N3CCC(Oc4ccc(F)cc4F)CC3)nc2c1`: the IC50 is 90 nM. `Fc1cc(F)c(CN2CCN(c3nc4ccncc4nc3Nc3cccnc3)CC2)cc1F`: the IC50 worked out at 400 nM. The value for `N#Cc1ccc2nc(NC3CC3)c(N3CCN(S(=O)(=O)c4ccc(C(F)(F)F)cc4Cl)CC3)nc2c1` was 1300 nM. As to `Clc1ccc(Cl)c(CN2CCN(c3nc4ccccc4nc3Nc3cccnn3)CC2)c1`, the IC50 was 1670 nM.

For the compound `CC[C@H](C)Nc1nc2cnncc2nc1N1CCC(Oc2ccc(OC)cc2F)CC1`, the half-maximal inhibitory concentration (IC50) amounted to 21 nM. For `COc1ccc(CN2CCN(c3nc4cnc(C(=O)N(C)C)cc4nc3NC3CC3)CC2)c(F)c1`, the IC50 stood at 939 nM.

On to `Fc1ccc(CC2CCN(c3nc4ccncc4nc3NC3CC3)CC2)c(F)c1`, for which the IC50 came out at 27 nM. Next, `CC(C)Nc1nc2cnncc2nc1N1CCC(C(F)c2ccc(F)cc2F)CC1` (stereo not given): 6 nM.
